Assay type in all cases: in vivo
For assay [1], the system named is NZBWF1 mice. Nature of the assay: Proteinuria scores (urine dip sticks) in NZBWF1 SLE mouse model. The conditions noted are these: for Proteinuria scores relative to vehicle: 3.0 mg/kg PO QD; for Proteinuria scores compared to vehicle: 0.3, 1.0 and 3.0 mg/kg PO QD. From the text:
Six groups of NZBWF1 mice (Jackson Laboratories, stock #100008) were used in the study and were acclimated to the research facility for 7 weeks prior to the start of the study. Weekly measurements of proteinuria (excess serum proteins present in the urine) and body weight began at 20 weeks of age. At 23 weeks of age, the mice were assigned to groups in a balanced manner in order to achieve average body weight and average proteinuria measurements across the groups. One “naive” group consisting of 10 mice was euthanized at the start of treatment and used as a source of tissue for analysis. Treatment began at 23 weeks of age.
The three groups dosed with compound 148 received 0.3, 1.0, and 3.0 mg/kg PO QD, respectively (20 mice per dosage). Surviving animals were sacrificed at 42 weeks. […] Disease development was evaluated as disclosed in the following examples.
High levels of proteinuria are a strong indicator of SLE. […] Proteinuria was expressed as a score from 0 to 4 (0=no protein; 1=traces of protein (<30 mg/dL); 2=30-100 mg/dL; 3=100-500 mg/dL; 4=>500 mg/dL).
As in Example 3, proteinuria was measured weekly beginning at 20 weeks using urine dip sticks (Roche Diagnostics Chemstrip 2GP, cat. no. 11895397160, per manufacturer's protocol). Proteinuria was expressed as a score from 0 to 4 (0=no protein; 1=traces of protein (<30 mg/dL); 2=30-100 mg/dL; 3=100-500 mg/dL; 4=>500 mg/dL). […] (In this and the following experiments, the number of mice per group was approximately 20, and statistics were determined by one-way ANOVA with Dunnett's comparison.)

The test system of assay [2] is anti-dsDNA antibodies. Description: Serum anti-dsDNA antibody titers by ELISA. As to conditions: NZBWF1 mice. On the procedure:
Serum anti-dsDNA antibody titers are used as an indicator of SLE state (see, e.g., Kavanaugh et al., “Guidelines for Clinical Use of the Antinuclear Antibody Test and Tests for Specific Autoantibodies to Nuclear Antigens”, Archives of Pathology & Laboratory Medicine, 124:1, 71-81 (2000)) in most (although not all) patient populations, (see, Isenberg et al., Rheumatology 46:1052-1056, 2007). Titers were measured at 23, 31, 36.5, and 42 weeks. ELISA was performed using an anti-dsDNA ELISA kit (Shibayagi Co., Ltd., cat. no. RSHAKRDD061) following manufacturer's protocol. Results were expressed as optical density (OD) and as arbitrary units per mL. The ELISA standard curve was generated from a pool of sera from mice used a previous study with a known high concentration of anti-dsDNA antibodies. The highest concentration used in the standard curve was 1:100 of that pooled sera. All test samples were diluted 1000-fold for testing. Data was analyzed using http://www.elisaanalysis.com.
As in Example 8, serum anti-dsDNA antibody titers were measured at 22, 30, 36, and 42 weeks. ELISA was performed using an anti-dsDNA ELISA kit.
(In general: ELISA stands for enzyme-linked immunosorbent assay.)

Assay [3] has as its system NZBWF1 mice. Nature of the assay: Kidney lesion histology scoring (glomerular, tubular and interstitial lesions). As to conditions: for Tubular and interstitial lesions: 0.3, 1.0, 3.0 mg/kg PO QD. From the text: Kidney lesions are another indicator of SLE progression. Kidney slides from test mice were stained with H&E and PAS, to evaluate interstitial infiltrates, tubular atrophy, and interstitial fibrosis (collectively, “tubular and interstitial lesions”), mesangial expansion, endocapillary and extracapillary proliferation, glomerular deposits, (collectively, “glomerular lesions”). Each lesion subtype was scored using a 4 point scale: 0=not present, 1=mild, 2=moderate and 3=severe. Average scores were calculated by multiplying the incidence of each grade by the value of the grade for each of the seven lesions and then adding the scores for the group. Thus, an incidence of 3 animals for grade 3 of a lesion equals a score of 9. The scores were then divided by the number of animals scored in the group.
All slides were scored blind by assigning a random number to each animal and then affixing a temporary label with the random number to the slides. Scores were recorded using Graham StarTox software, version 3.1.0. The StarTox software has a setting that limits the screen display to the random number only, without group or animal number information for use while reading the slides.
(§1) As in Example 5, left kidneys were weighed (FIG. 43) following termination at 42 weeks.

Assay [4] relates to NZBWF1 mice. Description: Spleen weight at 42 weeks. The procedure: To determine the effects of compound 148 on inflammatory infiltrate in the spleen, spleens were weighed at 42 weeks. […] Splenocyte suspensions were then prepared. RBCs were lysed and splenocytes were counted.
To determine the effects of compound 5 on inflammatory infiltrate in the spleen, spleens were weighed at 42 weeks. […] The 3 mg/kg dose of compound 5 trended lower indicating fewer inflammatory infiltrates in this organ. Splenocyte suspensions were prepared for all three doses. RBCs were lysed and splenocytes were counted.

Assay [5] relates to NZBWF1 mice. Description: Kidney weight at termination (42 weeks).
From the text: In SLE, inflammatory infiltrates known as Tertiary Lymphatic Tissue (TLT) accumulate in the kidney and spleen, among other tissues. As an indirect measure of disease progression, right and left kidneys were weighed (FIGS. 4A-4B) following termination at 42 weeks.
as §1

Assay [6] concerns NZBWF1 mice. Description: Serum blood urea nitrogen (BUN) at termination. On the procedure: Lymphocyte counts were measured from whole blood taken at 23, 31, and 36.5 weeks using flow cytometry. Cells were gated for CD4+ T cells, CD8+ T cells, and CD19+ B cells. […] Serum blood urea nitrogen (BUN) was also measured at termination to assess kidney function.
As in Example 4, serum blood urea nitrogen (BUN) was measured at termination to assess kidney function.

Here are results for two compounds from US11278526B2, “Compounds and methods for treating lupus” (RECEPTOS LLC, priority 2016, dated 2022).

“Also recorded” adds a separate entry of the source.

In the case of `CC(C)Oc1ccc(-c2nc(-c3cccc4c3CC[C@@H]4NCCO)no2)cc1C#N` [compound 5, (S)-5-(3-(1-(2-hydroxyethylamino)-2,3-dihydro-1H-inden-4-yl)-1,2,4-oxadiazol-5-yl)-2-isopropoxy benzonitrile], in assay [1] (weeks 22-42), the “Proteinuria scores relative to vehicle” value is “significant improvement relative to vehicle” and the “Proteinuria scores compared to vehicle” value is given as “lower proteinuria scores in a dose-dependent fashion”. In assay [2] (3 mg/kg PO QD, week 42, less than cyclophosphamide), the “Serum anti-dsDNA antibody titers” value was “decreased antibody titers at week 42”. Also, the Glomerular lesion score entry in assay [3] (0.3 mg/kg PO QD (compound 5 study)) was “glomerular lesion score less than to that of the vehicle control, but not significant”. Further, the “Severity of glomerular lesions” value in assay [3] (1.0 mg/kg and 3.0 mg/kg PO QD (compound 5 study)) is “dose-independent decrease in the severity of glomerular lesions”. Further, the “Tubular and interstitial lesions compared to cyclophosphamide” value in assay [3] (3.0 mg/kg PO QD (compound 5 study)) is given as “not statistically different from treatment with cyclophosphamide”. In addition, in assay [3] (significant at 1.0 and 3.0 mg/kg (compound 5 study)), the “Tubular and interstitial lesions” value was “dose-dependent decrease in tubular and interstitial lesions”. For the same compound, in assay [4] (3 mg/kg PO QD), the “Spleen weight relative to vehicle” value is given as “trended lower”. Moreover, the “Spleen weight relative to vehicle” value in assay [4] (any dose 0.3, 1.0, 3.0 mg/kg PO QD) was “lower, but not significant relative to vehicle”. Also, the “Left kidney weight relative to vehicle” value in assay [5] (1.0 and 3.0 mg/kg PO QD) was “significantly reduced kidney weight relative to vehicle”. The “Serum BUN at termination vs vehicle” value in assay [6] (all doses 0.3, 1.0, 3.0 mg/kg PO QD) is “significant reduction in serum BUN”.
`CC(C)Oc1ccc(-c2nc(-c3cccc4c3CC[C@@H]4N)no2)cc1C#N` [compound 148, (S)-5-(3-(1-amino-2,3-dihydro-1H-inden-4-yl)-1,2,4-oxadiazol-5-yl)-2-isopropoxy-benzonitrile]: the “Proteinuria scores relative to vehicle” value in assay [1] (weeks 23-42, p<0.05, 3 mg/kg) is given as “significant improvement relative to vehicle; also recorded: efficacy similar to cyclophosphamide”. In addition, the “Proteinuria scores compared to vehicle” value in assay [1] (weeks 23-42) is “lower proteinuria scores in a dose-dependent fashion”. Besides, in assay [2] (all three dosages 0.3, 1.0, 3.0 mg/kg PO QD, ELISA optical density), the “Serum anti-dsDNA antibody titers” value is given as “decreased antibody titers at week 29; also recorded: decrease was not sustained over the course of the study”. In assay [3] (0.3 mg/kg PO QD (compound 148 study)), the Glomerular lesion score entry is reported as “glomerular lesion score similar to that of the vehicle control”. In assay [3] (1.0 mg/kg and 3.0 mg/kg PO QD (compound 148 study)), the “Severity of glomerular lesions” value is “dose-independent decrease in the severity of glomerular lesions”. Moreover, in assay [3] (p<0.05 (compound 148 study)), the “Tubular and interstitial lesions” value is “dose-dependent decrease in tubular and interstitial lesions; also recorded: not statistically different from treatment with cyclophosphamide”. Further, the “Combined kidney lesion score (glomerular plus tubular and interstitial) vs vehicle” value in assay [3] (all three treatment groups 0.3, 1.0, 3.0 mg/kg PO QD) was “dose-related decrease in combined kidney lesion score”. In addition, the “Spleen weight relative to vehicle” value in assay [4] (all groups 0.3, 1.0, 3.0 mg/kg PO QD) was “significantly lower”. Besides, the “Kidney weight relative to vehicle” value in assay [5] (3.0 mg/kg PO QD, p<0.05) is reported as “significantly reduced kidney weight relative to vehicle”. Moreover, in assay [6] (3 mg/kg PO QD, p<0.05), the “Serum BUN at termination vs vehicle” value is recorded as “significant reduction in serum BUN”.
